Biological target: T1, Myosin-7 (Bos taurus, UniProt Q9BE39)
T1 construct: gene MYH7
Experiment: Biochemical Assay
Protocol: In our experiments, bovine skinned cardiac myofibrils were isolated from the frozen bovine left ventricle as myosin's source in the ATPase assay. […] 75 μL of a solution containing bovine cardiac myofibrils, PK/LDH, and calcium were added to a 96 well plate for a 7 point dose-response. In some circumstances, 10 point-response was used to repeat the ATPase assays on compounds of interest. Compounds were added to the myofibrils solution and incubated for 5 minutes. The enzymatic reaction was started with the addition of 75 μL of a solution containing ATP, PEP, NADH, compounds, and calcium. The ATPase activity was measured by reading absorbance at 340 nm in a PerkinElmer Victor Nivo plate reader at 25° C. in kinetic mode for 15 minutes using clear bottom plates. The slopes of the absorbance changes as a function of time for the first 10 minutes were normalized to slopes on the control wells containing all reagents, including DMSO, but without compounds.

T1 sequence (Q9BE39 whole entry, looked up): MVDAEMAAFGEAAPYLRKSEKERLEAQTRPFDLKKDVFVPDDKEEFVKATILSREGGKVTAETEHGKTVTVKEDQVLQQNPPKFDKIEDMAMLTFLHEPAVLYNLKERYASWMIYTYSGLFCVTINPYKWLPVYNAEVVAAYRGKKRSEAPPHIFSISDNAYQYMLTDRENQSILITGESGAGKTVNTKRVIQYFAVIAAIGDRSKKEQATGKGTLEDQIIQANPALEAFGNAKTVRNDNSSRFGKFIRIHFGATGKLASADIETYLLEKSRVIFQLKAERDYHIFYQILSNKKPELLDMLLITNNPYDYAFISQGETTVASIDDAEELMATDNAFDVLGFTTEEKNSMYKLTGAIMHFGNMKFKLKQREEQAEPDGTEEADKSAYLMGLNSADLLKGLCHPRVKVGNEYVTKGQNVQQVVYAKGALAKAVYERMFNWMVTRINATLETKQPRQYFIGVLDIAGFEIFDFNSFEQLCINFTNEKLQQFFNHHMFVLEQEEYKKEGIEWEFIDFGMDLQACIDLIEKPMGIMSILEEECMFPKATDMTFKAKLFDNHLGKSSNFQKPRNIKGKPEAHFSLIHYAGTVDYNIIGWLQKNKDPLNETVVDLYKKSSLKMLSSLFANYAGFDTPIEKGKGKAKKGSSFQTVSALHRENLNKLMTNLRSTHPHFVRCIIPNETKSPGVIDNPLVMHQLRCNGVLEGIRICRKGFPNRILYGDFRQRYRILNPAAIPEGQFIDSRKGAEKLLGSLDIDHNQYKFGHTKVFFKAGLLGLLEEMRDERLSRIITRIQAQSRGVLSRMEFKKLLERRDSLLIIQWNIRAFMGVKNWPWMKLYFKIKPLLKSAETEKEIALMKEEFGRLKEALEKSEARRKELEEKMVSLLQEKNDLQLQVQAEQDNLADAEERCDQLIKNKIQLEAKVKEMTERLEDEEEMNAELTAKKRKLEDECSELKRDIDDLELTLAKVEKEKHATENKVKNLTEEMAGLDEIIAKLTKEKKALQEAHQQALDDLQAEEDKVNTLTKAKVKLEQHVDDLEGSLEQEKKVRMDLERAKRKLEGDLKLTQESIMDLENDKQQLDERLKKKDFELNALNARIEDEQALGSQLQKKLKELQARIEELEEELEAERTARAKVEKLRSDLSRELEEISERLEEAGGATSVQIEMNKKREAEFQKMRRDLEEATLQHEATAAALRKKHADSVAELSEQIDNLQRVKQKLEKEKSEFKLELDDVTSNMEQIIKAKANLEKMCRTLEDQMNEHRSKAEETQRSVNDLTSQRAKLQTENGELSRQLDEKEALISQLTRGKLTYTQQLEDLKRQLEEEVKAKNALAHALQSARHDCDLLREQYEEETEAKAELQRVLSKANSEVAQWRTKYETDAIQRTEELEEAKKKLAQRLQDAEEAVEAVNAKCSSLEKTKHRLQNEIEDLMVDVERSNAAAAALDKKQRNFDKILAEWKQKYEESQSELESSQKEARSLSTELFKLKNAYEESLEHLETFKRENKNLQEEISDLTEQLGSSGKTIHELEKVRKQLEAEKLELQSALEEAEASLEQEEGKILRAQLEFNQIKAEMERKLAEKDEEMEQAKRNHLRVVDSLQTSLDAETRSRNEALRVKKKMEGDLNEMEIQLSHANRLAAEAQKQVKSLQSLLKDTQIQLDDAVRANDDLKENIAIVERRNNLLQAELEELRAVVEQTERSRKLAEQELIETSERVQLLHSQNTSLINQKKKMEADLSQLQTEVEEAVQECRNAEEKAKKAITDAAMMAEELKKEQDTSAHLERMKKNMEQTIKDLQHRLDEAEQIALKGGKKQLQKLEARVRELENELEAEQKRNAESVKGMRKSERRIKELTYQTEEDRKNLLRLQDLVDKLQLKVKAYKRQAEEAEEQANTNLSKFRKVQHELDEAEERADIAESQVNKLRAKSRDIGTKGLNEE

IC50 | SMILES
2460 nM | C[C@H](Nc1nc(=O)n(C2CCOCC2)c(=O)[nH]1)c1cccc(C(C)(C)O)c1 [US20240262804, Example 8]
1210 nM | C[C@H](Nc1nc(=O)n(C2CCOCC2)c(=O)[nH]1)c1ccc(F)cc1Cl [US20240262804, Example 162]
930 nM | C[C@H](Nc1nc(=O)n(C2CCOCC2)c(=O)[nH]1)c1cc(Cl)ccc1Cl [US20240262804, Example 163]
2850 nM | C[C@H](Nc1nc(=O)n(CC(F)(F)F)c(=O)[nH]1)c1ccc(Cl)c(Cl)c1 [US20240262804, Example 173]

Continued, compound first:

SMILES | IC50
C[C@H](Nc1nc(=O)n(-c2ccccc2)c(=O)[nH]1)C1CCCCC1 [US20240262804, Example 1] | 8050 nM
Cc1cccc([C@H](C)Nc2nc(=O)n(C3CCOCC3)c(=O)[nH]2)c1 [US20240262804, Example 4] | 800 nM
Cc1nn(C)cc1-c1cccc([C@H](C)Nc2nc(=O)n(C3CCOCC3)c(=O)[nH]2)c1 [US20240262804, Example 5] | 3590 nM
Cc1ccn(-c2cccc([C@H](C)Nc3nc(=O)n(C4CCOCC4)c(=O)[nH]3)c2)n1 [US20240262804, Example 6] | 4010 nM
CC(C)C(O)c1cccc([C@H](C)Nc2nc(=O)n(C3CCOCC3)c(=O)[nH]2)c1 (some centres undefined) [US20240262804, Example 9] | 1180 nM
